From ChEMBL document CHEMBL3853312, “Blocking Blood Flow to Solid Tumors by Destabilizing Tubulin: An Approach to Targeting Tumor Growth” (J Med Chem, 2016)
Blank lines part the entries; values can stand above or below the molecule they belong to.

How the values were obtained:
Format in all cases: ADME, organism-based
[1] = Drug excretion in iv dosed human urine assessed as unchanged compound administered as 30 mins infusion after 24 hrs by LC-MS/MS analysis; details: read-out: Drug excretion
[2] = Tmax in human at 250 mg, po qd regimen measured on day 7 post dose by LC-MS analysis; details: in vivo
[3] = Apparent half life in human at 11.5 to 42 mg/m'-2, iv dosed as 30 mins infusion by LC-MS/MS analysis; details: in vivo, read-out: t1/2(app)

dose excreted at 24 h [1]: < 1%
Compound: COc1cc(C(=O)c2ccc(-c3csc(NC(=O)[C@@H](N)C(C)C)n3)cc2-n2cncn2)cc(OC)c1OC

Tmax [2]: 120 min
Compound: COc1ccc(S(=O)(=O)Nc2cccnc2Nc2ccc(O)cc2)cc1 [ABT-751]

Compound: COc1ccc(/C=C\c2cc(OC)c(OC)c(OC)c2)cc1NC(=O)[C@@H](N)CO [OMBRABULIN]
half-life [3]: 12 min
